Experimental data reported in PMC11289891, “Selection and characterization of a peptide-based complement modulator targeting C1 of the innate immune system” (RSC Chemical Biology, 2024).
pEC50, pIC50: −log10 of the molar value. Read-outs that look alike come from different tables or passages of the source. Values belong to the compound of their own block, whether it stands above or below them. Positions of bridges follow the written chain, without caps; N, C: chain ends. Non-standard residues stand in square brackets, D forms with d. Residues, ends and D or L forms follow the SMILES beside them. *: point of attachment. Biotin = O=C1N[C@H]2[C@H](CS[C@H]2CCCCC(=O)*)N1; Lys(N3) = [N-]=[N+]=NCCCC[C@H](N)C(=O)O

Legend:
C1q = target: T1, C1q (Homo sapiens, UniProt P02745+P02746+P02747); test: ELISA for complement activation: C1q recruitment from human serum by immobilised peptide; assay type: binding; settings: for pEC50: 1% human serum in RPMI, four-parameter fit
T1 construct: tissue Complement Technology, Inc; host or cells: normal human serum (pooled), 1% in RPMI medium
T1 sequence (P02745 23-245): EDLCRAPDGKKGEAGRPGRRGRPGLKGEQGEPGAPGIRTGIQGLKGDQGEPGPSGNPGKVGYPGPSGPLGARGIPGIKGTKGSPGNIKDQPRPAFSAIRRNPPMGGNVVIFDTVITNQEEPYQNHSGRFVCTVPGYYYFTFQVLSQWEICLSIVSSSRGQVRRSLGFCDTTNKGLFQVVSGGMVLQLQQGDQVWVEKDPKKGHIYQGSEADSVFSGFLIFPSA
T1 sequence (P02746 28-253): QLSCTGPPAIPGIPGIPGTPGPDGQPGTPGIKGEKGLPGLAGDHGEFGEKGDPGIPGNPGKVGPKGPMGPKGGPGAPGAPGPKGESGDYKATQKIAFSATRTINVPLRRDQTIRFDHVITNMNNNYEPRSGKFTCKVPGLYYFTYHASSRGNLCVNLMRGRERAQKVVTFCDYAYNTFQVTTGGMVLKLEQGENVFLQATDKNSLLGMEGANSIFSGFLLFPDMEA
T1 sequence (P02747 29-245): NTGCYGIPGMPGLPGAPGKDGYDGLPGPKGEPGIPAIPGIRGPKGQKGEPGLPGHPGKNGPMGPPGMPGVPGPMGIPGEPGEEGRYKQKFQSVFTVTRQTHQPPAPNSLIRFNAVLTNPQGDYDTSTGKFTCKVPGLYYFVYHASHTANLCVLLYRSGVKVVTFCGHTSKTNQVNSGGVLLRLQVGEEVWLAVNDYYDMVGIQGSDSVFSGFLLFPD
T1 sequence (P00736 18-705 partner): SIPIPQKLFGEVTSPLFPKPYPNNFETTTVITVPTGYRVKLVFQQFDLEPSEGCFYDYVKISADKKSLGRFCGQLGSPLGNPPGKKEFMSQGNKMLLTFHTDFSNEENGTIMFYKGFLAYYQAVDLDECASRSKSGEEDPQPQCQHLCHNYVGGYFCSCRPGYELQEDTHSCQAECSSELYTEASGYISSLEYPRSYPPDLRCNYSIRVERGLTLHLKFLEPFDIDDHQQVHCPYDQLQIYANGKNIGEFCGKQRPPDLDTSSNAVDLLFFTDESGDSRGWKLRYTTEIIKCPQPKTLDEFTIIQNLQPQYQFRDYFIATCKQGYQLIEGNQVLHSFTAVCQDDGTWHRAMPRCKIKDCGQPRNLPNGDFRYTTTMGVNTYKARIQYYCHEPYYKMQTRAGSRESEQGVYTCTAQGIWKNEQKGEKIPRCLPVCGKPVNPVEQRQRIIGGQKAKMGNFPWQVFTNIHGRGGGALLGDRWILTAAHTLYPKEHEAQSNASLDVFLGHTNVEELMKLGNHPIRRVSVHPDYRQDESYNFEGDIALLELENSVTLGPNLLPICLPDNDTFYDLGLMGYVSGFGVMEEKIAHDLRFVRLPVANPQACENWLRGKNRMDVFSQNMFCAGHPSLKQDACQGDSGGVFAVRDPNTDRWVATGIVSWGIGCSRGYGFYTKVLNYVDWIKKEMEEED
T1 sequence (P09871 16-688 partner): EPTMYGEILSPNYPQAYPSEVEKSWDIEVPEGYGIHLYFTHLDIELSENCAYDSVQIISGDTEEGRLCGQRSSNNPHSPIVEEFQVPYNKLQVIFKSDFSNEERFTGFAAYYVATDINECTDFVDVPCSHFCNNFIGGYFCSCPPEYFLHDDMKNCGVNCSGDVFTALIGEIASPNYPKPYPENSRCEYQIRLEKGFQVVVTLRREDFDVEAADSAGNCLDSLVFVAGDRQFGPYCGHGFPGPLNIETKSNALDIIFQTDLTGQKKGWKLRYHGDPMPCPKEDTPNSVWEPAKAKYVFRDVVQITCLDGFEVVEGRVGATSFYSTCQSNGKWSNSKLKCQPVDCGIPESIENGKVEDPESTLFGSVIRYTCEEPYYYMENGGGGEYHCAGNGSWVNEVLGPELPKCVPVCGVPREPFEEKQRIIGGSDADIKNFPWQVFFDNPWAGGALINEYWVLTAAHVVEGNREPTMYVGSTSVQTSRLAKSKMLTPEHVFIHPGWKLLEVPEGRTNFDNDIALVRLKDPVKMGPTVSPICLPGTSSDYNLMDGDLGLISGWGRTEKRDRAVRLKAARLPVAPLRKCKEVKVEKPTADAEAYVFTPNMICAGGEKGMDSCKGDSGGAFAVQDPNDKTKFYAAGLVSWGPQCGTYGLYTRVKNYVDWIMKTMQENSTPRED
Method: Maxisorb Nunc Immunoplates (Thermofisher Scientific, Massachusetts, USA) were coated with streptavidin (Thermofisher Scientific) at 10 μg mL^−1 in 0.1 M Na2CO3, 0.1 M NaHCO3 (coating buffer), pH 9.6 at 50 μL per well and allowed to incubate either at room temperature overnight, or 37 °C for 1 hour. Plates were washed with PBS with 0.05% tween-20 three times. For each following step, samples were incubated at 37 °C for 1 hour and subsequently washed with the PBS-T solution, we denote this as incubation and wash in the latter parts of the text. After streptavidin binding, wells were blocked with 100 μL of 0.1 M spermidine (Thermofisher Scientific) in distilled water incubated and washed. Then peptides were incubated in 50 μL PBS (as with all the following steps) with 0.05% Tween-20 (PBS-T) to create a peptide presenting surface and incubated and washed. In all activation assays, peptides are modified with a biotin to achieve binding to streptavidin. Note that in certain instances the peptides are initially modified with an azide. In such conditions a biotin-PEG4-DBCO (Jena Bioscience GmbH, Germany) was co-incubated with the peptides at 25 mol% excess of biotin linker to create a biotin modified peptide. This conjugation reaction took place in the plate. Hereafter the wells were incubated with 1% normal human serum (NHS) (Complement Technology, Inc., Texas, USA) in RPMI medium (Roswell Park Memorial Institute 1640 medium), then incubated and washed. Following these steps, complement components C1q or C5b-9 were detected. Primary Rabbit anti-C1q or Mouse anti C5b-9 (Dako, Denmark) was added to PBS, 0.05% Tween-20, 0.1% BSA (PBS-BT) in 1 : 2000 and 1 : 333 dilution, respectively, then incubated and washed. Next, goat anti-rabbit and anti-mouse antibodies (Dako, Denmark) modified with horseradish peroxidase (HRP) were diluted 1 : 5000 in PBS-T and added to the plates, then incubated and washed. To detect the HRP on the secondary antibody 2.5 mg mL^−1 ABTS (2′-azino-bis(3-ethylbenzothiazoline-6-sulfonic acid)) was added in citric acid buffer (0.15 M, pH 4.2) (ABTS buffer) containing 0.15 (v/v%) H2O2 was used and samples were incubated at room temperature for 30 minutes. Absorption measurements at 415 nm were performed on a CLARIOstar microplate reader (BMG Labtech, Offenburg, Germany).

[1] = test system: C1q binding to pooled IgG; test: Competition ELISA on pooled human IgG, C1q detected; settings: peptide incubated with 1% human serum, pooled IgG-coated plate, two technical replicates
Method: (§1) Materials, including buffers and blocking agent, were the same as for the activation assay, unless stated otherwise. Incubation and wash steps between added new components was kept identical to the section “Enzyme-linked immunosorbent assay (ELISA) for complement activation” above. To determine the competition with pooled human IgG (Sigma-Aldrich, USA), Maxisorb plates were coated with 10 μg mL^−1 of IgG pooled from human serum, incubated, washed and blocked with spermidine. Peptides were incubated with 1% normal human serum (pooled, Complement Technology) for at least 30 minutes before adding to the IgG coated plates. DMSO controls and no serum controls were added. Human serum with and without peptides was added to the plates and subsequent complement inhibition was determined by detecting the presence of C1q or C5b-9. Data shown in the graphs is normalized to the maximum signal of the DMSO control and the minimal signal of the no serum control. Absorption measurements at 415 were performed on a CLARIOstar microplate reader (BMG Labtech, Offenburg, Germany).

[2] = test system: C5b-9 deposition by pooled IgG; test: Competition ELISA on pooled human IgG, C5b-9 detected; assay type: biochemical
Method: as §1

- pEC50 (C1q; cL3-Az conjugated to biotin-DBCO linker on streptavidin plate, 1 hour 37 °C, single technical replicate, CI 5.2-7.4, R2 0.99, read-out: EC50 of C1q recruitment, Fig. S4): 5.21
- EC50 of C1 recruitment compared with the biotinylated variant (C1q; cL3-Az via biotin-DBCO linker on streptavidin plate, 1% human serum): comparable to the biotinylated variant
Structure (SMILES): CC[C@H](C)[C@@H]1NC(=O)[C@H](Cc2ccccc2)NC(=O)[C@H](CCC(N)=O)NC(=O)[C@H](CC(C)C)NC(=O)[C@H]([C@@H](C)O)NC(=O)[C@H](Cc2ccccc2)NC(=O)[C@@H]2CCCN2C(=O)[C@H](CC(=O)O)NC(=O)[C@@H]2CCCN2C(=O)[C@H](Cc2ccc(O)cc2)NC(=O)[C@H](Cc2ccccc2)NC(=O)[C@H]([C@@H](C)O)NC(=O)[C@H](C(C)C)NC(=O)[C@H]([C@@H](C)O)NC(=O)[C@H](Cc2ccc(O)cc2)NC(=O)CSC[C@@H](C(=O)NCC(=O)N[C@@H](CO)C(=O)N[C@@H](CCCCN=[N+]=[N-])C(=O)NCC(=O)O)NC(=O)[C@H](C)NC1=O [cL3-Az] ({CH2CO}-YTVTFYPDPFTLQFIACGS[Lys(N3)]G-OH; thioether N-17)

- pEC50 (C1q; cL3-Bt titrated on streptavidin plate, technical duplicate on one plate (data of Fig. 3a), CI ND, R2 0.99, read-out: EC50 of C1q recruitment, Fig. S2 graph on the right): 5.21
- pEC50 (C1q; cL3-Bt titrated on streptavidin plate, technical duplicate on one plate, CI 7.4-9.1, R2 0.99, read-out: EC50 of C1q recruitment, Fig. S2 graph in the middle): 5.09
- pEC50 (C1q; cL3-Bt titrated on streptavidin plate, technical duplicate on one plate, CI ND, R2 0.98, read-out: EC50 of C1q recruitment, Fig. S2 graph on the left): 5.57
Structure (SMILES): CC[C@H](C)[C@@H]1NC(=O)[C@H](Cc2ccccc2)NC(=O)[C@H](CCC(N)=O)NC(=O)[C@H](CC(C)C)NC(=O)[C@H]([C@@H](C)O)NC(=O)[C@H](Cc2ccccc2)NC(=O)[C@@H]2CCCN2C(=O)[C@H](CC(=O)O)NC(=O)[C@@H]2CCCN2C(=O)[C@H](Cc2ccc(O)cc2)NC(=O)[C@H](Cc2ccccc2)NC(=O)[C@H]([C@@H](C)O)NC(=O)[C@H](C(C)C)NC(=O)[C@H]([C@@H](C)O)NC(=O)[C@H](Cc2ccc(O)cc2)NC(=O)CSC[C@@H](C(=O)NCC(=O)N[C@@H](CO)C(=O)N[C@@H](CCCCNC(=O)CCCC[C@@H]2SC[C@@H]3NC(=O)N[C@@H]32)C(=O)NCC(=O)O)NC(=O)[C@H](C)NC1=O [cL3-Bt] ({CH2CO}-YTVTFYPDPFTLQFIACGSK(Biotin)G-OH; thioether N-17)

- pIC50 ([2]; data of Fig. 6b, four-parameter fit, CI 1.01-2.13, R2 0.94, read-out: IC50, competition with IgG, Fig. S18 fit): 5.82
Structure (SMILES): CC[C@H](C)[C@@H]1NC(=O)[C@H](Cc2ccccc2)NC(=O)[C@H](CCC(N)=O)NC(=O)[C@H](CC(C)C)NC(=O)[C@H]([C@@H](C)O)NC(=O)[C@H](Cc2ccccc2)NC(=O)[C@@H]2CCCN2C(=O)[C@H](CC(=O)O)NC(=O)[C@@H]2CCCN2C(=O)[C@H](Cc2ccc(O)cc2)NC(=O)[C@H](Cc2ccccc2)NC(=O)[C@H]([C@@H](C)O)NC(=O)[C@H](C(C)C)NC(=O)[C@H]([C@@H](C)O)NC(=O)[C@@H](Cc2ccc(O)cc2)NC(=O)CSC[C@@H](C(=O)NCC(=O)N[C@@H](CO)C(=O)N[C@@H](CCCCNC(=O)CCCC[C@@H]2SC[C@@H]3NC(=O)N[C@@H]32)C(=O)NCC(=O)O)NC(=O)[C@H](C)NC1=O [inv-cL3] ({CH2CO}-[dY]TVTFYPDPFTLQFIACGSK(Biotin)G-OH; thioether N-17; C-terminus assumed)
- Inhibition of C1q binding to pooled IgG [1]: minor inhibition of C1q binding to pooled IgG at high concentrations
- Inhibition of C5b-9 deposition by pooled IgG (qualitative, rank) ([2]; peptide incubated with 1% human serum, pooled IgG-coated plate, two technical replicates): significantly worse than full-length cL3
